Source: patent publication US20240190886A1, “BRM Targeting Compounds and Associated Methods of Use” (Prelude Therapeutics Incorporated, priority 2022, published 2024)

How the values were obtained:
[1] = target: T1, SMARCA2 (Homo sapiens, UniProt P51531); assay: SMARCA2 HiBiT degradation assay in HeLa cells; format: cell-based; settings: 18 hours incubation, Nano-Glo HiBiT Lytic detection
T1 construct: SMARCA2-HiBiT knock-in Hela monoclonal cell (CS302366) and SMARCA4-HiBiT knock-in Hela monoclonal cell (CS3023226) were purchased from Promega; host or cells: HeLa SMARCA2-HiBiT knock-in monoclonal cells (heterozygous knock-in)
Description: (§1) Example A. SMARCA2 HiBiT and SMARCA4 HiBiT Degradation Assay
(§2) HiBiT peptide knock-in of SMARCA2 in LgBiT expressing HEK293T cells was performed by CRISPR-mediated tagging system as described Promega. The homozygous HiBiT knock-in on c-terminus SMARCA2 was confirmed by sanger sequence. SMARCA2-HiBiT knock-in Hela monoclonal cell (CS302366) and SMARCA4-HiBiT knock-in Hela monoclonal cell (CS3023226) were purchased from Promega. The heterozygous HiBiT-knock-in was confirmed by sanger sequence in both SMARCA2-HiBiT and SMARCA4-HiBiT monoclonal cells.
(§3) SMARCA2 HiBiT and SMARCA4 HiBiT degradation assay in HeLa cells
(§4) Dispense 10 ul aliquot of prepared Hela-SMARCA2-HiBiT or Hela-SMARCA4-HiBiT cells (1:1 ratio of cells:Trypan Blue (#1450013, Bio-Rad)) onto cell counting slide (#145-0011, Bio-Rad) and obtain cell density and cell viability using cell counter (TC20, Bio-Rad). Remove appropriate volume of resuspended cells from culture flask to accommodate 2500 cells/well @20 μL/well. Transfer Hela-HiBiT cells to 50 mL conical (#430290, Corning). Spin down at 1000 rpm for 5 min using tabletop centrifuge (SPINCHRON 15, Beckman). Discard supernatant and resuspend cell pellet in modified EMEM (#30-2003, ATCC) cell culture media containing 10% FBS (F2422-500ML, Sigma), and 1X Penicillin/Streptomycin (200 g/L) (30-002-CI, Corning) to a cell density of 125,000 cells/mL. Dispense 20 μLof resuspended Hela-HiBit cells per well in 384-well TC treated plate (#12-565-343, Thermo Scientific) using standard cassette (#50950372, Thermo Scientific) on Multidrop Combi (#5840310, Thermo Scientific) inside laminar flow cabinet.
(§5) Compounds were dissolved in DMSO to make 10 mM stock and 3-fold series dilutions were further conducted keeping the highest concentration 10 RM. Dispense test compounds onto plates using digital liquid dispenser (D300E, Tecan). Incubate plates in humidified tissue culture incubator @37° C. for 18 hours. Add 20 μL of prepared Nano-Glo® HiBiT Lytic detection buffer (N3050, Promega) to each well of 384-well plate using small tube cassette (#24073295, Thermo Scientific) on Multidrop Combi, incubate @ RT for 30-60 min. Read plates on microplate reader (Envision 2105, PerkinElmer) using 384 well Ultra-Sensitive luminescence mode. Raw data files and compound information reports are swept into centralized data lake and deconvoluted using automated scripts designed by TetraScience, Inc. Data analysis, curve-fitting and reporting done in Dotmatics Informatics Suite using Screening Ultra module.
(§6) In Table 1, A=DC50<0.1 RM; B=0.1 μM≤DC50<1 μM and C=DC50>1 μM. In Table 4, A=Dmax>75% and B=50%<Dmax<75% and C=Dmax<50%.

[2] = target: T2, SMARCA4 (Homo sapiens, UniProt P51532); assay: SMARCA4 HiBiT degradation assay in HeLa cells; format: cell-based; settings: 18 hours incubation, Nano-Glo HiBiT Lytic detection
T2 construct: SMARCA2-HiBiT knock-in Hela monoclonal cell (CS302366) and SMARCA4-HiBiT knock-in Hela monoclonal cell (CS3023226) were purchased from Promega; host or cells: HeLa SMARCA4-HiBiT knock-in monoclonal cells (heterozygous knock-in)
Description: as §1, §2, §3, §4, §5, §6

T2 sequence (P51532 whole entry): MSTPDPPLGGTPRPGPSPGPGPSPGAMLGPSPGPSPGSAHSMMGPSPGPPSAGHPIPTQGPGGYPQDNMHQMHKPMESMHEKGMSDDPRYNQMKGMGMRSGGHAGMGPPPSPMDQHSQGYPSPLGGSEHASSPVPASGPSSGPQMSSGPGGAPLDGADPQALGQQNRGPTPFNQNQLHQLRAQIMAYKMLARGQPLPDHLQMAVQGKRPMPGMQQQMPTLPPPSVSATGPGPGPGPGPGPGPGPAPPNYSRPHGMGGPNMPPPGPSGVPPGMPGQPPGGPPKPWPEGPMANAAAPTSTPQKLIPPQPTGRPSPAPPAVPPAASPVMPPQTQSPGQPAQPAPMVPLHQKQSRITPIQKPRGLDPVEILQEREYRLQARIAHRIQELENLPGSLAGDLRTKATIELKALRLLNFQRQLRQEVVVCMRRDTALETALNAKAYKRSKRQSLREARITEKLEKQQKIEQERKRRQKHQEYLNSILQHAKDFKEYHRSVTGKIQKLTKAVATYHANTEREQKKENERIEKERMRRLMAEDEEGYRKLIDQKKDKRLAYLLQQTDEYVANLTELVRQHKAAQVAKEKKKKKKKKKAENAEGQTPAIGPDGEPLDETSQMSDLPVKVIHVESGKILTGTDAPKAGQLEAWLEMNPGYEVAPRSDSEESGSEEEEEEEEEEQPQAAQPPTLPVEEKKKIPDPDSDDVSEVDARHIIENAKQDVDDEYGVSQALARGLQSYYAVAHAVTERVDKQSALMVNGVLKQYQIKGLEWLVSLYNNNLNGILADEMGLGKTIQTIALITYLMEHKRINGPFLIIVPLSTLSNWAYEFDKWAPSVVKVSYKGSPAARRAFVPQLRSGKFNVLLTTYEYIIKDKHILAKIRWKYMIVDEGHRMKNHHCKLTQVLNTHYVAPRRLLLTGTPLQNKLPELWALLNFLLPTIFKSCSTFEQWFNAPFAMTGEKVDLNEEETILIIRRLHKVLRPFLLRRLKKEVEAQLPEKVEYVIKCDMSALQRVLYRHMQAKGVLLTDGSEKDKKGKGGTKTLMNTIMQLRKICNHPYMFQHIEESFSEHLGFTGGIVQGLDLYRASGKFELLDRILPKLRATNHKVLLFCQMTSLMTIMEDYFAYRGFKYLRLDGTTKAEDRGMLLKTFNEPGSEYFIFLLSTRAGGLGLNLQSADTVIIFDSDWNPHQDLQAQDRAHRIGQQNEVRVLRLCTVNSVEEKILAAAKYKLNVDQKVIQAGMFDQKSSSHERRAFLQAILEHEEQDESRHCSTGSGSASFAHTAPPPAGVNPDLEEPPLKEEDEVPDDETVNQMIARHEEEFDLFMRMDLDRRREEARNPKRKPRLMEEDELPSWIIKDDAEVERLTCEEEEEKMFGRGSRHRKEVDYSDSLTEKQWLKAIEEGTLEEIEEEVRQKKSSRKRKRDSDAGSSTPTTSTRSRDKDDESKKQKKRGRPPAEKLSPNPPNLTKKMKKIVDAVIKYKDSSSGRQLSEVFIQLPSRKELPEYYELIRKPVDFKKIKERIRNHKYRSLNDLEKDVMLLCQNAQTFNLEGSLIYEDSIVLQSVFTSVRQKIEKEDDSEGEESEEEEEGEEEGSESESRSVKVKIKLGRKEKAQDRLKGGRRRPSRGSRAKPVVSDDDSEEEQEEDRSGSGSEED
T1 sequence (P51531 whole entry): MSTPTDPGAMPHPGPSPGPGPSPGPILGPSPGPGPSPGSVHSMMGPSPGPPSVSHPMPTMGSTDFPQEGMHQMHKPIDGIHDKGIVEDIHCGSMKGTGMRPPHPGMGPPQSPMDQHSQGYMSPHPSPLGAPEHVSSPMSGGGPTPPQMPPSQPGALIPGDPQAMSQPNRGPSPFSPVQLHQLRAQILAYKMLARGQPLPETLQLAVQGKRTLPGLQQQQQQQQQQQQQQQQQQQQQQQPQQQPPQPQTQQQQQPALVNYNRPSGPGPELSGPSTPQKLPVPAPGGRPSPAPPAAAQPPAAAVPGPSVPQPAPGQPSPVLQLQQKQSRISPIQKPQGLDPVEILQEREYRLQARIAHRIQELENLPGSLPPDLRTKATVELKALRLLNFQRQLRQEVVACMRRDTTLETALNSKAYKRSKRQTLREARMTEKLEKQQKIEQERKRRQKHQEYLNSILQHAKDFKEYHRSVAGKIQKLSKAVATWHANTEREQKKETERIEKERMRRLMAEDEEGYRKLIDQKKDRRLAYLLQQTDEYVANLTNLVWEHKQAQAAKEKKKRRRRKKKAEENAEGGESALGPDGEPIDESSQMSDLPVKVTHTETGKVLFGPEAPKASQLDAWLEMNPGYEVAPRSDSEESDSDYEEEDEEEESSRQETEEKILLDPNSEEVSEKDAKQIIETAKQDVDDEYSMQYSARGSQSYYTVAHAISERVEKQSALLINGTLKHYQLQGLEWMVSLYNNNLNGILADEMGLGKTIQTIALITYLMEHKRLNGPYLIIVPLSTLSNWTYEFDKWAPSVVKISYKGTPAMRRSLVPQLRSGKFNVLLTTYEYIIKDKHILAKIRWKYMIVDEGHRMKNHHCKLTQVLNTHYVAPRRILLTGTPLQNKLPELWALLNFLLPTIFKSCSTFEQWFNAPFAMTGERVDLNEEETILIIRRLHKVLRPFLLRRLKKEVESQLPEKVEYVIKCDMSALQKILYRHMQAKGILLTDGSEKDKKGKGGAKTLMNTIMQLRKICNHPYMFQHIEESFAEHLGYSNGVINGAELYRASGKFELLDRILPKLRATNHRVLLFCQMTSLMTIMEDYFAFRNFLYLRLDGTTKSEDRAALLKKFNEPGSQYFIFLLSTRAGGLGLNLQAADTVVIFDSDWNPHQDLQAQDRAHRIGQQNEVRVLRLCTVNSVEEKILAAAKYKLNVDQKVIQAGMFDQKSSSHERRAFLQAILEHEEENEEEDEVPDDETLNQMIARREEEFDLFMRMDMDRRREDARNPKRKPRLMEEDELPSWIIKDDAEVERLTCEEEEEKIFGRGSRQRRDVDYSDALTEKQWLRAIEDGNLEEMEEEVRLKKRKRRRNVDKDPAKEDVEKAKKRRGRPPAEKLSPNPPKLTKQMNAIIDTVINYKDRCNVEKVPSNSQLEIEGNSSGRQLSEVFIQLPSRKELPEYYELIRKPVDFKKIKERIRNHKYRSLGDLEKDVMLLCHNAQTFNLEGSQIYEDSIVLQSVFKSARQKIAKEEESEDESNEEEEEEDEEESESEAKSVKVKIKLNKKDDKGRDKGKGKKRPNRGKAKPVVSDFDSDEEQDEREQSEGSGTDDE

**Q.** CC[C@]12CNc3nnc(-c4ccccc4O)cc3N1C[C@H](Oc1ccc(CN3CCN(c4ccc(C(=O)NC5CCC(=O)NC5=O)c(F)c4)CC3)cn1)C2 (stereo partly drawn) [Example 13, N-(2,6-dioxopiperidin-3-yl)-4-(4-((6-(((6aS,8R)-6a-ethyl-2-(2-hydroxyphenyl)-5,6,6a,7,8,9-hexahydropyrrolo[1′,2′:4,5]pyrazino[2,3-c]pyridazin-8-yl)oxy)pyridin-3-yl)methyl)piperazin-1-yl)-2-fluorobenzamide] was tested. Which DC50 [1] did it give?
**A.** 100 to 1000 nM

**Q.** What about the Dmax [1] of the same molecule?
**A.** < 50%

**Q.** What about the DC50 [2] of the same molecule?
**A.** > 1000 nM

**Q.** What about the Dmax [2] of the same molecule?
**A.** < 50%

**Q.** Which results are given for CC[C@]12CNc3nnc(-c4ccccc4O)cc3N1C[C@H](Oc1ccc(CN3CCN(c4ccc(NC5CCC(=O)NC5=O)cc4F)CC3)cn1)C2 (stereo partly drawn) [Example 11, 3-((4-(4-((6-(((6aS,8R)-6a-ethyl-2-(2-hydroxyphenyl)-5,6,6a,7,8,9-hexahydro-pyrrolo[1′,2′:4,5]pyrazino[2,3-c]pyridazin-8-yl)oxy)pyridin-3-yl)methyl)piperazin-1-yl)-3-fluorophenyl)amino)piperidine-2,6-dione]?
**A.** DC50 [1]: < 100 nM; Dmax [1]: > 75%; DC50 [2]: < 100 nM; Dmax [2]: > 75%

**Q.** CC[C@]12CNc3nnc(-c4ccccc4O)cc3N1C[C@H](Oc1ccc(CN3CCN(c4ccc(N5CCC(=O)NC5=O)cc4)CC3)cn1)C2 [Example 9, 1-(4-(4-((6-(((6aS,8R)-6a-ethyl-2-(2-hydroxyphenyl)-5,6,6a,7,8,9-hexahydro-pyrrolo[1′,2′:4,5]pyrazino[2,3-c]pyridazin-8-yl)oxy)pyridin-3-yl)methyl)piperazin-1-yl)phenyl)dihydropyrimidine-2,4(1H,3H)-dione] was tested. Which DC50 [1] did it give?
**A.** 100 to 1000 nM

**Q.** And the Dmax [1]?
**A.** < 50%

**Q.** And the DC50 [2]?
**A.** < 100 nM

**Q.** And the Dmax [2]?
**A.** 50 to 75%

**Q.** How did the DC50 [1] turn out when C[C@@H]1CN(CC2CCN(c3ccnc(C(=O)NC4CCC(=O)NC4=O)c3)CC2)C[C@H](C)N1C(=O)N1CCN2c3cc(-c4ccccc4O)nnc3NC[C@H]2C1 (stereo partly drawn) [Example 7, N-(2,6-dioxopiperidin-3-yl)-4-[4-[[(3R,5S)-4-[(1OS)-4-(2-hydroxyphenyl) 1,5,6,8,12-pentazatricyclo[8.4.0.02,7]tetradeca-2,4,6-triene-12-carbonyl]-3,5-dimethylpiperazin-1-yl]methyl]piperidin-1-yl]pyridine-2-carboxamide] was run?
**A.** < 100 nM

**Q.** What about the Dmax [1] of the same molecule?
**A.** 50 to 75%

**Q.** And the DC50 [2]?
**A.** > 1000 nM

**Q.** What does the source list for C[C@@H]1CN(CC2CCN(c3ccc(C(=O)NC4CCC(=O)NC4=O)c(F)c3)CC2)C[C@H](C)N1C(=O)N1CCN2c3cc(-c4ccccc4O)nnc3NC[C@H]2C1 (stereo partly drawn) [Example 1, N-(2,6-dioxopiperidin-3-yl)-2-fluoro-4-(4-(((3R,5S)-4-((S)-2-(2-hydroxyphenyl)-6,6a,7,8,9,10-hexahydro-5H-pyrazino[1′,2′:4,5]pyrazino[2,3-c]pyridazine-8-carbonyl)-3,5-dimethylpiperazin-1-yl)methyl)piperidin-1-yl)benzamide]?
**A.** DC50 [1]: < 100 nM; DC50 [2]: > 1000 nM

**Q.** C[C@@H]1CN(CC2CCN(c3ccc4c(=O)n(C5CCC(=O)NC5=O)ncc4c3)CC2)C[C@H](C)N1C(=O)N1CCN2c3cc(-c4ccccc4O)nnc3NC[C@H]2C1 (stereo partly drawn) [Example 3, 3-(6-(4-(((3R,5S)-4-((S)-2-(2-hydroxyphenyl)-6,6a,7,8,9,10-hexahydro-5H-pyrazino[1′,2′:4,5]pyrazino[2,3-c]pyridazine-8-carbonyl)-3,5-dimethylpiperazin-1-yl)methyl)piperidin-1-yl)-1-oxophthalazin-2(1H)-yl)piperidine-2,6-dione] was tested. Which DC50 [1] did it give?
**A.** < 100 nM

**Q.** What about the Dmax [1] of the same molecule?
**A.** 50 to 75%

**Q.** What about the DC50 [2] of the same molecule?
**A.** 100 to 1000 nM

**Q.** And the Dmax [2]?
**A.** < 50%

**Q.** Which DC50 [1] does the source give for O=C1CCC(n2ncc3ccc(N4CCC(CN5C[C@@H]6[C@H](C5)[C@H]6CN5CCN6c7cc(-c8ccccc8O)nnc7NC[C@H]6C5)CC4)cc32)C(=O)N1 (stereo partly drawn) [Example 6, 3-(6-(4-(((1R,5S,6r)-6-(((S)-2-(2-hydroxyphenyl)-5,6,6a,7,9,10-hexahydro-8H-pyrazino[1′,2′:4,5]pyrazino[2,3-c]pyridazin-8-yl)methyl)-3-azabicyclo[3.1.0]hexan-3-yl)methyl)piperidin-1-yl)-1H-indazol-1-yl)piperidine-2,6-dione] here?
**A.** 100 to 1000 nM

**Q.** And the Dmax [1]?
**A.** < 50%

**Q.** And the DC50 [2]?
**A.** > 1000 nM

**Q.** What about the Dmax [2] of the same molecule?
**A.** < 50%

**Q.** For C[C@@H]1CN(CC2CCN(c3ccc4ncn(C5CCC(=O)NC5=O)c(=O)c4c3)CC2)C[C@H](C)N1C(=O)N1CCN2c3cc(-c4ccccc4O)nnc3NC[C@H]2C1 (stereo partly drawn) [Example 2, 3-(6-(4-(((3R,5S)-4-((S)-2-(2-hydroxyphenyl)-6,6a,7,8,9,10-hexahydro-5H-pyrazino[1′,2′:4,5]pyrazino[2,3-c]pyridazine-8-carbonyl)-3,5-dimethylpiperazin-1-yl)methyl)piperidin-1-yl)-4-oxoquinazolin-3(4H)-yl)piperidine-2,6-dione], which DC50 [1] is on record?
**A.** < 100 nM

**Q.** What about the Dmax [1] of the same molecule?
**A.** 50 to 75%

**Q.** What about the DC50 [2] of the same molecule?
**A.** 100 to 1000 nM

**Q.** What about the Dmax [2] of the same molecule?
**A.** 50 to 75%

**Q.** For CC[C@]12CNc3nnc(-c4ccccc4O)cc3N1C[C@H](Oc1ccc(CN3CCN(c4ccc(NC5CCC(=O)NC5=O)cc4)CC3)cn1)C2 (stereo partly drawn) [Example 10, 3-((4-(4-((6-(((6aS,8R)-6a-ethyl-2-(2-hydroxyphenyl)-5,6,6a,7,8,9-hexahydro-pyrrolo[1′,2′:4,5]pyrazino[2,3-c]pyridazin-8-yl)oxy)pyridin-3-yl)methyl)piperazin-1-yl)phenyl)amino)piperidine-2,6-dione], which DC50 [1] is on record?
**A.** < 100 nM

**Q.** What about the Dmax [1] of the same molecule?
**A.** > 75%

**Q.** What about the DC50 [2] of the same molecule?
**A.** < 100 nM

**Q.** And the Dmax [2]?
**A.** > 75%

**Q.** Which DC50 [1] does the source give for C[C@@H]1CN(CC2CCN(c3ccc4cn(C5CCC(=O)NC5=O)nc4c3)CC2)C[C@H](C)N1C(=O)N1CCN2c3cc(-c4ccccc4O)nnc3NC[C@H]2C1 (stereo partly drawn) [Example 4, 3-(6-(4-(((3S,5R)-4-((S)-2-(2-hydroxyphenyl)-6,6a,7,8,9,10-hexahydro-5H-pyrazino[1′,2′:4,5]pyrazino[2,3-c]pyridazine-8-carbonyl)-3,5-dimethylpiperazin-1-yl)methyl)piperidin-1-yl)-2H-indazol-2-yl)piperidine-2,6-dione] here?
**A.** < 100 nM

**Q.** And the Dmax [1]?
**A.** 50 to 75%

**Q.** What about the DC50 [2] of the same molecule?
**A.** < 100 nM

**Q.** And the Dmax [2]?
**A.** 50 to 75%

**Q.** Which DC50 [1] does the source give for CC[C@]12CNc3nnc(-c4ccccc4O)cc3N1C[C@H](Oc1ccc(CN3CCN(c4ccc(C(=O)NC5CCC(=O)NC5=O)cc4)CC3)cn1)C2 (stereo partly drawn) [Example 12, N-(2,6-dioxopiperidin-3-yl)-4-(4-((6-(((6aS,8R)-6a-ethyl-2-(2-hydroxyphenyl)-5,6,6a,7,8,9-hexahydropyrrolo[1′,2′:4,5]pyrazino[2,3-c]pyridazin-8-yl)oxy)pyridin-3-yl)methyl)piperazin-1-yl)benzamide] here?
**A.** < 100 nM

**Q.** What about the Dmax [1] of the same molecule?
**A.** 50 to 75%

**Q.** What about the DC50 [2] of the same molecule?
**A.** 100 to 1000 nM

**Q.** And the Dmax [2]?
**A.** < 50%

**Q.** How did the DC50 [1] turn out when Cn1nc(N2CCC(=O)NC2=O)c2ccc(N3CCC(CN4C[C@@H]5[C@H](C4)[C@H]5CN4CCN5c6cc(-c7ccccc7O)nnc6NC[C@H]5C4)CC3)cc21 [Example 8, 1-[6-[4-[[(1S,5R)-6-[[(10S)-4-(2-hydroxyphenyl)-1,5,6,8,12-pentazatricyclo[8.4.0.02,7]tetradeca-2,4,6-trien-12-yl]methyl]-3-azabicyclo[3.1.0]hexan-3-yl]methyl]piperidin-1-yl]-1-methylindazol-3-yl]-1,3-diazinane-2,4-dione] was run?
**A.** < 100 nM

**Q.** And the Dmax [1]?
**A.** 50 to 75%

**Q.** And the DC50 [2]?
**A.** < 100 nM

**Q.** What about the Dmax [2] of the same molecule?
**A.** 50 to 75%

**Q.** CC[C@]12CNc3nnc(-c4ccccc4O)cc3N1C[C@H](Oc1ccc(CN3CCN(c4ccc(C5CCC(=O)NC5=O)cc4)CC3)cn1)C2 (stereo partly drawn) [Example 14, 3-(4-(4-((6-(((6aS,8R)-6a-ethyl-2-(2-hydroxyphenyl)-5,6,6a,7,8,9-hexahydro-pyrrolo[1′,2′:4,5]pyrazino[2,3-c]pyridazin-8-yl)oxy)pyridin-3-yl)methyl)piperazin-1-yl)phenyl)piperidine-2,6-dione] was tested. Which DC50 [1] did it give?
**A.** < 100 nM

**Q.** And the Dmax [1]?
**A.** > 75%

**Q.** What about the DC50 [2] of the same molecule?
**A.** < 100 nM

**Q.** What about the Dmax [2] of the same molecule?
**A.** > 75%
